The supplement of paper PMC10307832

Experiments:
Experiment in all cases: relative viability (nuclei count vs DMSO), 5 days (fraction); higher = more cells survive
TPCA-1 + Pictilisib = compound: C1=CC(=CC=C1C2=CC(=C(S2)NC(=O)N)C(=O)N)F [TPCA-1] + CS(=O)(=O)N1CCN(Cc2cc3nc(-c4cccc5[nH]ncc45)nc(N4CCOCC4)c3s2)CC1 [Pictilisib] (partner 1 µM)
How it was run: (§1)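 One day after seeding in 1536-well plates, lung cancer cell lines were dosed by pin tool. Dosing was either single-drug or a fixed anchor-drug dose plus five library-drug doses (not always all listed) in √10 steps. After 5 days, nuclei were stained in one fix-and-stain step and counted on 4× images, and relative viability is the nuclei count of treated wells over that of vehicle wells, given as the median of duplicate plates.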

TPCA-1 + Foretinib = compound: C1=CC(=CC=C1C2=CC(=C(S2)NC(=O)N)C(=O)N)F [TPCA-1] + COc1cc2c(Oc3ccc(NC(=O)C4(C(=O)Nc5ccc(F)cc5)CC4)cc3F)ccnc2cc1OCCCN1CCOCC1 [Foretinib] (partner 0.25 µM)
How it was run: as §1

Lestaurtinib + Alpelisib = compound: C[C@]12O[C@H](C[C@]1(O)CO)n1c3ccccc3c3c4c(c5c6ccccc6n2c5c31)CNC4=O [Lestaurtinib] + Cc1nc(NC(=O)N2CCC[C@H]2C(N)=O)sc1-c1ccnc(C(C)(C)C(F)(F)F)c1 [Alpelisib] (partner 2 µM)
How it was run: as §1

[1] = compound: C1/C(=C\C2=CC=CS2)/C(=O)/C(=C/C3=CC=CS3)/C1 + Nc1nc2[nH]cc(CCc3ccc(C(=O)N[C@@H](CCC(=O)O)C(=O)O)cc3)c2c(=O)[nH]1 [Pemetrexed] (partner 0.2 µM)
How it was run: as §1

| Cell Line | relative viability (TPCA-1 + Pictilisib; first compound 0.04 µM) | relative viability (TPCA-1 + Pictilisib; first compound 0.1265 µM) | relative viability (TPCA-1 + Pictilisib; first compound 0.4 µM) | relative viability (TPCA-1 + Pictilisib; first compound 1.265 µM) | relative viability (TPCA-1 + Pictilisib; first compound 4 µM) | relative viability (TPCA-1 + Foretinib; first compound 0.04 µM) | relative viability (TPCA-1 + Foretinib; first compound 0.1265 µM) | relative viability (TPCA-1 + Foretinib; first compound 0.4 µM) | relative viability (TPCA-1 + Foretinib; first compound 1.265 µM) | relative viability (TPCA-1 + Foretinib; first compound 4 µM) | relative viability (Lestaurtinib + Alpelisib; first compound 0.005 µM) | relative viability (Lestaurtinib + Alpelisib; first compound 0.01581 µM) | relative viability (Lestaurtinib + Alpelisib; first compound 0.05 µM) | relative viability (Lestaurtinib + Alpelisib; first compound 0.1581 µM) | relative viability (Lestaurtinib + Alpelisib; first compound 0.5 µM) | relative viability ([1]; first compound 0.2 µM) | relative viability ([1]; first compound 0.6325 µM) | relative viability ([1]; first compound 2 µM) | relative viability ([1]; first compound 6.325 µM) | relative viability ([1]; first compound 20 µM) |
| --- | --- | --- | --- | --- | --- | --- | --- | --- | --- | --- | --- | --- | --- | --- | --- | --- | --- | --- | --- | --- |
| 201T | 0.733 | 0.66 | 0.687 | 0.663 | 0.632 | 1.12 | 1.04 | 1.07 | 1.09 | 0.9 | 1.04 | 1.03 | 1.02 | 0.933 | 0.693 | 0.351 | 0.367 | 0.333 | 0.313 | 0.33 |
| A549 | 0.676 | 0.517 |  | 0.378 | 0.242 | 0.989 | 1.03 | 0.947 | 0.826 | 0.764 | 0.802 | 0.638 | 0.518 | 0.263 | 0.0616 |  |  |  |  |  |
| A-427 | 0.756 | 0.591 | 0.687 | 0.626 | 0.164 | 1.01 | 1.05 | 1.05 | 0.921 | 0.695 | 1.14 | 1.16 | 0.952 | 0.571 | 0.4 | 1.02 | 1.04 | 0.89 | 0.943 | 0.941 |
| ABC-1 | 0.82 | 0.479 | 0.672 | 0.429 | 0.524 | 1.28 | 1.11 | 1.27 | 0.964 | 0.778 | 1.06 | 1.02 | 0.845 | 0.658 | 0.262 |  |  |  |  |  |
| BEN | 0.663 | 0.449 | 0.516 | 0.789 | 0.441 | 0.654 | 0.549 | 0.671 | 0.679 | 0.303 | 1.09 | 1.31 | 0.852 | 0.722 | 0.446 | 0.82 | 0.781 | 1.03 | 0.662 | 0.657 |
| CAL-12T | 0.283 | 0.438 | 0.507 | 0.224 | 0.162 | 1.21 | 0.989 | 1.15 | 1.08 | 0.716 | 1.12 | 1.3 | 1.19 | 0.502 | 0.385 | 1.28 | 1.25 | 1.24 | 1.16 | 1.07 |
| Calu-6 | 0.954 | 0.841 | 0.946 | 0.785 | 0.469 | 0.946 | 0.877 | 0.862 | 0.853 | 0.659 | 1.05 | 0.873 | 0.501 | 0.381 | 0.164 |  |  |  |  |  |
| ChaGo-K-1 | 0.624 | 0.704 | 0.805 | 0.748 | 0.334 | 0.998 | 0.894 | 0.992 | 0.857 | 0.612 |  |  |  |  |  | 0.259 | 0.26 | 0.278 | 0.224 | 0.25 |
| EBC-1 | 0.462 | 0.421 | 0.466 | 0.474 | 0.362 | 0.0976 | 0.0894 | 0.103 | 0.125 | 0.13 | 0.851 | 0.948 | 0.658 | 0.624 | 0.298 |  |  |  |  |  |
| HCC-44 | 0.684 | 0.571 | 0.619 | 0.792 | 0.508 |  |  |  |  |  | 0.782 | 0.973 | 0.644 | 0.834 | 0.469 | 0.64 | 0.688 | 0.613 | 0.55 | 0.673 |
| IA-LM | 0.319 | 0.339 | 0.417 | 0.376 | 0.404 | 1.14 | 1.02 | 1.09 | 1.01 | 0.885 | 0.967 | 0.964 | 1.13 | 1.05 | 0.28 |  |  |  |  |  |
| NCI-H522 |  |  |  |  |  |  |  |  |  |  |  |  |  |  |  | 1.04 | 0.916 | 1.17 | 0.988 | 0.957 |
| NCI-H727 | 0.389 | 0.249 | 0.35 | 0.28 | 0.222 | 1.01 | 0.922 | 0.738 | 0.788 | 0.829 | 0.627 | 0.481 | 0.554 | 0.49 | 0.155 |  |  |  |  |  |
| NCI-H1299 | 0.854 | 0.669 | 0.828 | 0.614 | 0.243 | 1.07 | 1.07 | 1.03 | 1.09 | 1.07 | 1.14 | 1.05 | 0.559 | 0.614 | 0.713 |  |  |  |  |  |
| NCI-H1623 |  |  |  |  |  | 0.824 | 0.757 | 0.937 | 0.973 | 0.644 |  |  |  |  |  |  |  |  |  |  |
| NCI-H1648 |  |  |  |  |  |  |  |  |  |  |  |  |  |  |  | 0.859 | 0.718 | 0.79 | 0.609 | 0.569 |
| NCI-H1650 | 0.7 | 0.537 | 0.592 | 0.423 | 0.422 | 1.15 |  | 1.36 | 1.14 | 0.858 |  |  |  |  |  | 0.35 | 0.392 | 0.42 | 0.373 | 0.367 |
| NCI-H1703 | 0.263 | 0.284 | 0.259 |  | 0.213 | 0.308 | 0.33 | 0.315 |  | 0.302 | 0.293 | 0.288 | 0.283 | 0.2 | 0.117 |  |  |  |  |  |
| NCI-H1792 | 0.343 | 0.318 | 0.252 | 0.264 | 0.177 |  |  |  |  |  | 0.858 | 0.875 | 0.516 | 0.429 | 0.209 | 0.931 | 0.875 | 0.882 | 0.74 | 0.767 |
| NCI-H2342 |  |  |  |  |  | 1.03 | 0.998 | 1.15 | 0.992 | 0.962 |  |  |  |  |  | 0.781 | 0.764 | 0.838 | 0.718 | 0.747 |
| SW 900 |  |  |  |  |  | 0.894 | 0.71 | 0.841 | 0.958 | 0.789 |  |  |  |  |  | 0.481 | 0.525 | 0.49 | 0.399 | 0.482 |
